Results taken from US8134015B2, “Compound inhibiting in vivo phosphorous transport and medicine containing the same” (Kyowa Hakko Kirin Co., Ltd., priority 2003, dated 2012).
pIC50: −log10 of the molar value.

Key:
rat NaPi-2b = target: T1, rat NaPi-2b (Rattus norvegicus, UniProt Q9JJ09); assay: Sodium-dependent phosphate uptake of Xenopus oocytes which expressed NaPi-2b (32P); assay type: cell-based; conditions: Xenopus oocytes expressing rat NaPi-2b, 32P radioactive phosphorus; read-out: IC50 (phosphate uptake inhibitory activity)
T1 construct: expressed in transfected cells; host or cells: Xenopus oocytes injected with cRNA
T1 sequence (Q9JJ09 1-695): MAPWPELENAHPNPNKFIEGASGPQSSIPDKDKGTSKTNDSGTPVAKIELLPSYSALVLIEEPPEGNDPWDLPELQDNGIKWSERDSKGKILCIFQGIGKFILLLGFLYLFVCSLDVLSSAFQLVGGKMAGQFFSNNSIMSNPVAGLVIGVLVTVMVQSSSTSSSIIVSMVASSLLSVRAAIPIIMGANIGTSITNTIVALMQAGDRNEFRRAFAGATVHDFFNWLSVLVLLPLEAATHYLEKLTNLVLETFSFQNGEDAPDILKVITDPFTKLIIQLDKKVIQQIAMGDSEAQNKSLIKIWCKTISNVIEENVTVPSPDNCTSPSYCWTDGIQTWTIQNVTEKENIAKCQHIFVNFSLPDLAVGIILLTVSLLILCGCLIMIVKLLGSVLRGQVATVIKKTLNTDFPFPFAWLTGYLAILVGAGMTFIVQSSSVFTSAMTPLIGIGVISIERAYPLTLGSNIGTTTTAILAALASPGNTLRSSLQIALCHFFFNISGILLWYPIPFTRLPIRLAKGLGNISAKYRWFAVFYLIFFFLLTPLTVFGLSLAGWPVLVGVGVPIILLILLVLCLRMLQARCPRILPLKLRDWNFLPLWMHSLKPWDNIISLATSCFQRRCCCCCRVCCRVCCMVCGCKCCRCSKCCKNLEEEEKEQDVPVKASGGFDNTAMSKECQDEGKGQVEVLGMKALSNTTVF
Procedure, shortened: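 Inhibition at 300 μM and 100 μM was read off one inhibition curve of 32P phosphate uptake. Uptake was measured in Xenopus oocytes cultured 2 days after injection of cRNA for cloned rat NaPi-2b.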

human NaPi-2a = target: T2, human NaPi-2a (Homo sapiens, UniProt Q06495); assay: Sodium-dependent phosphate uptake of Xenopus oocytes which expressed NaPi-2a (32P); assay type: cell-based; conditions: phosphate uptake, Xenopus oocytes expressing human NaPi-2a; five concentration levels
T2 construct: expressed in transfected cells
T2 sequence (Q06495 1-639): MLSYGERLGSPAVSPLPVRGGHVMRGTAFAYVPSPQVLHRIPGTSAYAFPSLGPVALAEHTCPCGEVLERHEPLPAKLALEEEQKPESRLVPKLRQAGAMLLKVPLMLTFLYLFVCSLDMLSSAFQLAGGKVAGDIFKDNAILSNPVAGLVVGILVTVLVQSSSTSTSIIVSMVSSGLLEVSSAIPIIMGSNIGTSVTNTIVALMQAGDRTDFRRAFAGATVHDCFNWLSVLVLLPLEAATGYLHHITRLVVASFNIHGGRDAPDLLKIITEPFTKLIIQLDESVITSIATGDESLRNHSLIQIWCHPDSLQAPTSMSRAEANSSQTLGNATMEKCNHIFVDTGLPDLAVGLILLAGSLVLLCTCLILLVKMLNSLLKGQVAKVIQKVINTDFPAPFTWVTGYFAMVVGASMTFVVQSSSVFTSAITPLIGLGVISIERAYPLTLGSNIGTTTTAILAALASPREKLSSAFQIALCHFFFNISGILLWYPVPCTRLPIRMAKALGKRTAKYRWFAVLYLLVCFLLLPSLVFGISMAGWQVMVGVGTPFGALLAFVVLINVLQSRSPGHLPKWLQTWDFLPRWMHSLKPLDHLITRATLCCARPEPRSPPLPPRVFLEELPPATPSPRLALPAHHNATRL
Text: Experiment of Sodium-Dependent Phosphate Uptake of Xenopus oocytes which Expressed NaPi-2a
In the test, a group with the addition of choline chloride (Choline Cl) was used as a negative control for nonspecific uptake, and PFA (phosphonoformic acid) was used as a positive control for phosphate transport inhibition.

Structure (SMILES)	pIC50 (rat NaPi-2b)	pIC50 (human NaPi-2a)
O=C(Nc1sc2c(c1C(=O)N/N=C/c1ccc(F)cc1)CCCC2)c1cccc(CN2CCC(O)CC2)c1 [Compound 635, N-[3-(4-Fluoro-benzylidene-hydrazinocarbonyl)-4,5,6,7-tetrahydro-benzo[b]thiophen-2-yl]-3-(4-hydroxy-piperidin-1-ylmethyl)-benzamide]	5.81	5.87
COc1ccc(/C=N/NC(=O)c2cc(F)ccc2NC(=O)c2cccc(CN(CC(C)O)CC(C)O)c2)cc1 (stereo not drawn) [Compound 990, 3-{[Bis-(2-hydroxy-propyl)-amino]-methyl}-N-[4-fluoro-2-(4-methoxy-benzylidene-hydrazinocarbonyl)-phenyl]-benzamide]	> 5.52	5.15
Cc1ccc(/C=N/NC(=O)c2c(NC(=O)c3cccc(CN(CC(C)O)CC(C)O)c3)sc(C)c2C)cc1 (stereo not drawn) [Compound 845, 3-{[Bis-(2-hydroxy-propyl)-amino]-methyl}-N-[4,5-dimethyl-3-(4-methyl-benzylidene-hydrazinocarbonyl)-thiophen-2-yl]-benzamide]	> 5.52	> 5.52
CCN(CC)CCNCc1cccc(C(=O)Nc2sc3c(c2C(=O)N/N=C/c2ccc(F)cc2)CCC3)c1 [Compound 813, 3-[(2-Diethylamino-ethylamino)-methyl]-N-[3-(4-fluoro-benzylidene-hydrazinocarbonyl)-5,6-dihydro-4H-cyclopenta[b]thiophen-2-yl]-benzamide]	5.20	4.45
CCN(CC)CCN(CCN(CC)CC)Cc1cccc(C(=O)Nc2scc(C)c2C(=O)N/N=C/c2cccc(F)c2)c1 [Compound 841, 3-{[Bis-(2-diethylamino-ethyl)-amino]-methyl}-N-[3-(3-fluoro-benzylidene-hydrazinocarbonyl)-4-methyl-thiophen-2-yl]-benzamide]	> 5.52	4.70
O=C(Nc1ccc(Br)cc1C(=O)N/N=C/c1ccc(Cl)c(C(F)(F)F)c1)c1ccc(CSc2ccncc2)cc1 [Compound 260, N-[4-Bromo-2-(4-chloro-3-trifluoromethyl-benzylidene-hydrazinocarbonyl)-phenyl]-4-(pyridin-4-ylsulfanylmethyl)-benzamide]	> 5.52	> 5.52
O=C(Nc1sc2c(c1C(=O)N/N=C/c1ccc(F)cc1)CCCC2)c1cccc(CN2CCC(CO)CC2)c1 [Compound 641, N-[3-(4-Fluoro-benzylidene-hydrazinocarbonyl)-4,5,6,7-tetrahydro-benzo[b]thiophen-2-yl]-3-(4-hydroxymethyl-piperidin-1-ylmethyl)-benzamide]	5.53	5.12
Cc1csc(NC(=O)c2cccc(CN3CCC4(CC3)OCCO4)c2)c1C(=O)N/N=C/c1cccc(F)c1 [Compound 835, 3-(1,4-Dioxa-8-aza-spiro[4,5]dec-8-ylmethyl]-N-[3-(3-fluoro-benzylidene-hydrazinocarbonyl)-4-methyl-thiophen-2-yl]-benzamide]	5.19	4.96
Cc1csc(NC(=O)c2cccc(CN(C)C)c2)c1C(=O)N/N=C/c1ccc(Cl)c(C(F)(F)F)c1 [Compound 824, N-[3-(4-Chloro-3-trifluoromethyl-benzylidene-hydrazinocarbonyl)-4-methyl-thiophen-2-yl]-3-dimethylaminomethyl-benzamide]	5.49	5.09
CCN(CC)CCNCc1cccc(C(=O)Nc2sc3c(c2C(=O)N/N=C/c2ccc(C)c(C)c2)CCC3)c1 [Compound 810, 3-[(2-Diethylamino-ethylamino)-methyl]-N-[3-(3,4-dimethyl-benzylidene-hydrazinocarbonyl)-5,6-dihydro-4H-cyclopenta[b]-thiophen-2-yl]-benzamide]	5.18	4.62
CCN(CC)CCN(CCN(CC)CC)Cc1cccc(C(=O)Nc2scc(C)c2C(=O)N/N=C/c2ccc(F)cc2)c1 [Compound 840, 3-{[Bis-(2-diethylamino-ethyl)-amino]-methyl}-N-[3-(4-fluoro-benzylidene-hydrazinocarbonyl)-4-methyl-thiophen-2-yl]-benzamide]	5.16	4.47
Cc1ccc(/C=N/NC(=O)c2cc(N3CCCCC3)ccc2NC(=O)c2cccc(CSCCC(=O)O)c2)cc1 [Compound 887, 3-{3-[2-(4-Methyl-benzylidene-hydrazinocarbonyl)-4-piperidin-1-yl-phenylcarbamoyl]-benzylsulfanyl}-propionic acid]	5.76	4.82
CCN(CC)CCN(C)Cc1cccc(C(=O)Nc2ccc(N3CCCCC3)cc2C(=O)N/N=C/c2ccc(OC)cc2)c1 [Compound 863, 3-{[(2-Diethylamino-ethyl)-methyl-amino]-methyl}-N-[2-(4-methoxy-benzylidene-hydrazinocarbonyl)-4-piperidin-1-yl-phenyl]-benzamide]	5.91	5.16
Cc1ccc(/C=N/NC(=O)c2cc(Br)ccc2NC(=O)c2ccc(CSCCO)cc2)cc1 [Compound 264, N-[4-Bromo-2-(4-methyl-benzylidene-hydrazinocarbonyl)-phenyl]-4-(2-hydroxy-ethylsulfanylmethyl)-benzamide]	> 6.00	5.36
Cc1ccc(/C=N/NC(=O)c2c(C)csc2NC(=O)c2cccc(CN(CCO)CCO)c2)cc1 [Compound 787, 3-{[Bis-(2-hydroxy-ethyl)-amino]-methyl}-N-[4-methyl-3-(4-methyl-benzylidene-hydrazinocarbonyl)-thiophen-2-yl]-benzamide]	5.77	> 5.52
CCN(CC)CCN(CCN(CC)CC)Cc1cccc(C(=O)Nc2scc(C)c2C(=O)N/N=C/c2ccc(C)c(C)c2)c1 [Compound 838, 3-{[Bis-(2-diethylamino-ethyl)-amino]-methyl}-N-[3-(3,4-dimethyl-benzylidene-hydrazinocarbonyl)-4-methyl-thiophen-2-yl]-benzamide]	> 5.52	4.99
CC(O)CN(Cc1cccc(C(=O)Nc2ccc(F)cc2C(=O)N/N=C/c2cccc(F)c2)c1)CC(C)O (stereo not drawn) [Compound 987, 3-{[Bis-(2-hydroxy-propyl)-amino]-methyl}-N-[4-fluoro-2-(3-fluoro-benzylidene-hydrazinocarbonyl)-phenyl]-benzamide]	> 5.52	4.79
Cc1ccc(/C=N/NC(=O)c2c(NC(=O)c3cccc(CN4CCC(CO)CC4)c3)sc3c2CCCC3)cc1 [Compound 640, 3-(4-Hydroxymethyl-piperidin-1-ylmethyl)-N-[3-(4-methyl-benzylidene-hydrazinocarbonyl)-4,5,6,7-tetrahydro-benzo[b]thiophen-2-yl]-benzamide]	5.79	4.81
Cc1csc(NC(=O)c2cccc(CN3CCN(c4ncccn4)CC3)c2)c1C(=O)N/N=C/c1ccc(F)cc1 [Compound 828, N-[3-(4-Fluoro-benzylidene-hydrazinocarbonyl)-4-methyl-thiophen-2-yl]-3-(4-pyrimidin-2-yl-piperazin-1-ylmethyl)-benzamide]	5.03	5.00
O=C(Nc1ccc(N2CCCCC2)cc1C(=O)N/N=C/c1ccc(Cl)c(C(F)(F)F)c1)c1cccc(CSCCO)c1 [Compound 884, N-[2-(4-Chloro-3-trifluoromethyl-benzylidene-hydrazinocarbonyl)-4-piperidin-1-yl-phenyl]-3-(2-hydroxy-ethylsulfanylmethyl)-benzamide]	6.02	4.44
COc1ccc(NC(=O)c2cccc(CSCC(O)CO)c2)c(C(=O)N/N=C/c2ccc(Cl)c(C(F)(F)F)c2)c1 (stereo not drawn) [Compound 1020, N-[2-(4-Chloro-3-trifluoromethyl-benzylidene-hydrazinocarbonyl)-4-methoxy-phenyl]-3-(2,3-dihydroxy-propylsulfanyl-methyl)-benzamide]	6.41	5.65
